Measurements: patent US6344342B1, “Human G protein coupled lysophosphatidic acid receptor” (SmithKline Beecham Corporation, priority 1997, dated 2002)

Tested on: HOFNH30
Test: Ca2+-mobilization FLIPR assay in RBL-2H3 cells stably expressing HOFNH30
Assay type: cell-based, human
Conditions: several clones of RBL-2H3 cells stably expressing HOFNH30, Fluo 3AM-loaded cells
From the text: One preferred screening method involves co-transfecting HEK-293 cells with a mammalian expression plasmid encoding a G-protein coupled receptor (GPCR), such as HOFNH30, along with a mixture comprised of mammalian expression plasmids cDNAs encoding Gα15 (Wilkie T. M. et al Proc Natl Acad Sci USA 1991 88:10049-10053), Gα16 (Amatruda T. T. et al Proc Natl Acad Sci USA 1991 8:5587-5591, and three chimeric G-proteins refered to as Gqi5, Gqs5, and Gqo5 (Conklin B R et al Nature 1993 363:274-276, Conklin B. R. et al Mol Pharmacol 1996 50:885-890). Following a 24 h incubation the transfected HEK-293 cells are plated into poly-D-lysine coated 96 well black/clear plates (Becton Dickinson, Bedford, Mass.). The cells are assayed on FLIPR (Fluorescent Imaging Plate Reader, Molecular Devices, Sunnyvale, Calif.) for a calcium mobilization response following addition of test ligands. […]
A microtitre plate based Ca2^+-miobilization FLIPR assay (Fluorescent Imaging Plate Reader, Molecular Devices, Sunnyvale, Calif.) was used for the functional identification of the ligand activating RBL-2H3 cells stably expressing HOFNH30. […] After initiation of the assay, fluorescence was read every 1s for 1 min and then every 3 s for the following 1 min.

## CCCCCCCC/C=C\CCCCCCCC(=O)OC[C@@H](O)COP(=O)(O)O [LPA, 1-Oleoyl-sn-glycero-3-phosphate]
  calcium mobilization response: dose dependent calcium mobilization response
